Assay results: ChEMBL document CHEMBL1153318, “Design of potent thiophene inhibitors of polo-like kinase 1 with improved solubility and reduced protein binding” (Bioorg Med Chem Lett, 2009)
≈ marks a conversion by molar mass, not a printed value.

Columns and labels:
MX1 = experiment: Antiproliferative activity against human MX1 cells after 72 hrs by luminescence-based cell viability assay; type: functional; settings: MX1, 72 h
SK-OV-3 = experiment: Antiproliferative activity against human SKOV3 cells after 72 hrs by luminescence-based cell viability assay; type: functional; settings: SK-OV-3, 72 h
[1] = target: Platelet-derived growth factor receptor beta (Homo sapiens, UniProt P09619); experiment: Inhibition of human PDGFR1beta
[2] = target: Serine/threonine-protein kinase pim-1 (Homo sapiens, UniProt P11309); experiment: Inhibition of human PIM1
[3] = target: Phosphatidylinositol 4,5-bisphosphate 3-kinase catalytic subunit gamma isoform (Homo sapiens, UniProt P48736); experiment: Inhibition of human PI3Kgamma
[4] = target: T1, Phosphatidylinositol 4,5-bisphosphate 3-kinase catalytic subunit delta isoform (Homo sapiens, UniProt O00329); experiment: Inhibition of human PI3Kdelta
T1 sequence (O00329 whole entry): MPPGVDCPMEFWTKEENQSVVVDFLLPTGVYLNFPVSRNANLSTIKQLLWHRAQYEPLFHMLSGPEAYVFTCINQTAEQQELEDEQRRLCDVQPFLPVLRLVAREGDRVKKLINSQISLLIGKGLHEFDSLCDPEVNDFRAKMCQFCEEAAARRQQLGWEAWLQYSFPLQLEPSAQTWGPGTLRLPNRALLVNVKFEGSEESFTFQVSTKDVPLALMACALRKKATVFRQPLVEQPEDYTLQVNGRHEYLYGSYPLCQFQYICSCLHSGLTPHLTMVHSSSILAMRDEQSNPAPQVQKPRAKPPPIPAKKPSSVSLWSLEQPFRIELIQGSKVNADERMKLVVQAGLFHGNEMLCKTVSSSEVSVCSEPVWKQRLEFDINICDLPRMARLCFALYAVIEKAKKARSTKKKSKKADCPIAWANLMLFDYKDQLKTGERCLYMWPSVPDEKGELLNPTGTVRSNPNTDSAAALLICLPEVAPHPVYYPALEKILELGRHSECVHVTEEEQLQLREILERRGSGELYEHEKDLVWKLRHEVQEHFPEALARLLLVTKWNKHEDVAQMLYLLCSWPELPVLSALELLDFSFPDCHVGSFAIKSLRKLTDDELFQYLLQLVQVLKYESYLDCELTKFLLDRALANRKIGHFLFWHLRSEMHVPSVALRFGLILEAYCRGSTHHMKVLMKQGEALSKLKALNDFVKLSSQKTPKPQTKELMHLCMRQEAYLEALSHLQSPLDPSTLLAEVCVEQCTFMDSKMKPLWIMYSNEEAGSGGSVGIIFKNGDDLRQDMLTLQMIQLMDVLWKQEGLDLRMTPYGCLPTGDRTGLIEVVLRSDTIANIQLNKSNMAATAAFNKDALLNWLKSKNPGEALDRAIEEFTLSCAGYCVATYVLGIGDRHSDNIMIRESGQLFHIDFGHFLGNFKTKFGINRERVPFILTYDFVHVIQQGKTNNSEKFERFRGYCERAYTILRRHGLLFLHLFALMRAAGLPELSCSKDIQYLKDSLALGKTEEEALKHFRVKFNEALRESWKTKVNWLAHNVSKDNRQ

[5] = target: Vascular endothelial growth factor receptor 2 (Homo sapiens, UniProt P35968); experiment: Inhibition of human VEGFR2
[6] = target: T2, NUAK family SNF1-like kinase 1 (Homo sapiens, UniProt O60285); experiment: Inhibition of human Nuak1
T2 sequence (O60285 whole entry): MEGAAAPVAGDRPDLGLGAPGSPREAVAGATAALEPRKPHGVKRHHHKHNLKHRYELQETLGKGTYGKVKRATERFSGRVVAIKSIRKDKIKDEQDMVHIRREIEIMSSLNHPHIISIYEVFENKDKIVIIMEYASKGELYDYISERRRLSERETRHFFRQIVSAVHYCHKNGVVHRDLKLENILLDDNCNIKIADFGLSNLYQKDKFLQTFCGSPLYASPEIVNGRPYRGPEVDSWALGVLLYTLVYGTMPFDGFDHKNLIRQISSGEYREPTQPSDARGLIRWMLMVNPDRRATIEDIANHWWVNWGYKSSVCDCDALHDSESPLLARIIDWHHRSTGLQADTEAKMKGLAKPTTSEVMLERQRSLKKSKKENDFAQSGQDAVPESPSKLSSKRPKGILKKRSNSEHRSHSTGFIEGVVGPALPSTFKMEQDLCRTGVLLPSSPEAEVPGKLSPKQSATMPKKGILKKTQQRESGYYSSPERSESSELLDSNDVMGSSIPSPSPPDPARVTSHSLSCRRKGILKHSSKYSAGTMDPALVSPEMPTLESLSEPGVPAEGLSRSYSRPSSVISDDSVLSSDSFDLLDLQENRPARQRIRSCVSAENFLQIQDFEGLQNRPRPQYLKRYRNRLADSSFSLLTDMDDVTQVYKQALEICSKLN

[7] = Solubility in 0.05 M phosphate buffer at 200 uM at pH 7.4 after 15 mins by HPLC; type: physicochemical
[8] = Protein binding in human plasma at 2000 ng/mL after 6 hrs by equilibrium dialysis method; type: ADME, cell-free; settings: read-out: PPB (converted)
COLO 205 = experiment: Antiproliferative activity against human COLO205 cells after 72 hrs by luminescence-based cell viability assay; type: functional; settings: COLO 205, 72 h
HT-29 = experiment: Antiproliferative activity against human HT-29 cells after 72 hrs by luminescence-based cell viability assay; type: functional; settings: HT-29, 72 h
A549 = experiment: Antiproliferative activity against human A549 cells after 72 hrs by luminescence-based cell viability assay; type: functional; settings: A549, 72 h
[9] = target: T3, Serine/threonine-protein kinase Nek2 (Homo sapiens, UniProt P51955)
T3 sequence (P51955 whole entry): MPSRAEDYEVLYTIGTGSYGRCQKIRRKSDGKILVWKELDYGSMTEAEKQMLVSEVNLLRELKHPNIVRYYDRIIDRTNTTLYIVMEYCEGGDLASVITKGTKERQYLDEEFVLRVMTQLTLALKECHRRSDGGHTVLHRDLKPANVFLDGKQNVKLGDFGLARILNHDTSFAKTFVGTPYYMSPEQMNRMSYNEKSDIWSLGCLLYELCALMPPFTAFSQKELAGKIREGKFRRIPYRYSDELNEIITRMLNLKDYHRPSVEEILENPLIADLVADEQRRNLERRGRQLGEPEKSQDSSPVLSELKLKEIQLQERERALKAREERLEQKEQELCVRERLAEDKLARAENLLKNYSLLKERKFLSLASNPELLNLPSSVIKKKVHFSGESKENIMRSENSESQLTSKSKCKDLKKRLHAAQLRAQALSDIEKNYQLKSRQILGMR

HCT-116 = experiment: cells; settings: Homo sapiens, HCT-116, 72 h
Description: Antiproliferative activity against human HCT116 cells after 72 hrs by luminescence-based cell viability assay

[10] = target: Serine/threonine-protein kinase PLK3 (Homo sapiens, UniProt Q9H4B4); experiment: biochemical
Description: Inhibition of full length human PLK3 expressed in baculovirus-infected Trichoplusia ni cells by scintillation proximity assay

[11] = target: Serine/threonine-protein kinase PLK1 (Homo sapiens, UniProt P53350); experiment: biochemical
Sequence of Serine/threonine-protein kinase PLK1 (P53350 whole entry): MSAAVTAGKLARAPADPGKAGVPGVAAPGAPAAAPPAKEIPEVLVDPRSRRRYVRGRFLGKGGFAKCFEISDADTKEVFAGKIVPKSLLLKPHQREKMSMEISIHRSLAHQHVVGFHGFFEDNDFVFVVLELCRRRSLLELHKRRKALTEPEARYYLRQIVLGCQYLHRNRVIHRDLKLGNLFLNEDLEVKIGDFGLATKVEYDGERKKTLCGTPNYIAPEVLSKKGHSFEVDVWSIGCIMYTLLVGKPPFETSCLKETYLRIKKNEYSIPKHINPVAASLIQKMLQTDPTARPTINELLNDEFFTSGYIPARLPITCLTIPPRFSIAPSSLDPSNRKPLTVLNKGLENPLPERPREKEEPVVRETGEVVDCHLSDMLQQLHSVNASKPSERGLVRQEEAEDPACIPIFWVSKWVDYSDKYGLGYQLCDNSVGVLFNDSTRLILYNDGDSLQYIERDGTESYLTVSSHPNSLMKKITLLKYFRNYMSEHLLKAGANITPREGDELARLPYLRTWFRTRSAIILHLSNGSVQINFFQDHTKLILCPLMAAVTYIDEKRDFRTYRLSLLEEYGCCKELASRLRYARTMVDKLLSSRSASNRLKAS
Description: Inhibition of human PLK1 kinase domain expressed in baculovirus-infected Trichoplusia ni cells by scintillation proximity assay

Sequence of Serine/threonine-protein kinase PLK3 (Q9H4B4 whole entry): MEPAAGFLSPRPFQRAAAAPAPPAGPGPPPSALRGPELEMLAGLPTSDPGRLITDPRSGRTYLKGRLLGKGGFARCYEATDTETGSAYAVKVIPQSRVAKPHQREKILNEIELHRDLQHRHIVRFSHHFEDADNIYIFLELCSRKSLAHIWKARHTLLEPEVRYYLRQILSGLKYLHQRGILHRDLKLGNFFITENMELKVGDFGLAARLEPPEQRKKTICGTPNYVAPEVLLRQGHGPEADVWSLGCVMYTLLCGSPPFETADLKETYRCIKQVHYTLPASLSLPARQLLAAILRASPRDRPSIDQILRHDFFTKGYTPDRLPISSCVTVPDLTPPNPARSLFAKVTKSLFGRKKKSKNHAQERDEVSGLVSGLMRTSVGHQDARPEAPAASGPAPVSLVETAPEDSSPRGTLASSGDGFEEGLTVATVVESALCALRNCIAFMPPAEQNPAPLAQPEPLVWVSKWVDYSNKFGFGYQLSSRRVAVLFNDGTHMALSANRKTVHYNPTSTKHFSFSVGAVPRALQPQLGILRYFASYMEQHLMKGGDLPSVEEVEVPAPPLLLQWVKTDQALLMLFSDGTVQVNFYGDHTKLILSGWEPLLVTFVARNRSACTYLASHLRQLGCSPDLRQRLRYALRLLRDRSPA
Sequence of Serine/threonine-protein kinase pim-1 (P11309 whole entry, canonical isoform): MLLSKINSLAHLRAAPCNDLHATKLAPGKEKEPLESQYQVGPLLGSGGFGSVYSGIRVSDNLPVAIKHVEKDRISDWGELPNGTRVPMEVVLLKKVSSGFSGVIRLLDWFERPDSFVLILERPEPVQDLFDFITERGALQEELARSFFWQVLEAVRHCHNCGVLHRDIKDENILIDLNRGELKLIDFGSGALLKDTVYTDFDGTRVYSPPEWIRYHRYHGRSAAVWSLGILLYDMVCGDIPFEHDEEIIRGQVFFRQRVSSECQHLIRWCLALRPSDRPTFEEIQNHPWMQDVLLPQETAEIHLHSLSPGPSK
Sequence of Vascular endothelial growth factor receptor 2 (P35968 whole entry): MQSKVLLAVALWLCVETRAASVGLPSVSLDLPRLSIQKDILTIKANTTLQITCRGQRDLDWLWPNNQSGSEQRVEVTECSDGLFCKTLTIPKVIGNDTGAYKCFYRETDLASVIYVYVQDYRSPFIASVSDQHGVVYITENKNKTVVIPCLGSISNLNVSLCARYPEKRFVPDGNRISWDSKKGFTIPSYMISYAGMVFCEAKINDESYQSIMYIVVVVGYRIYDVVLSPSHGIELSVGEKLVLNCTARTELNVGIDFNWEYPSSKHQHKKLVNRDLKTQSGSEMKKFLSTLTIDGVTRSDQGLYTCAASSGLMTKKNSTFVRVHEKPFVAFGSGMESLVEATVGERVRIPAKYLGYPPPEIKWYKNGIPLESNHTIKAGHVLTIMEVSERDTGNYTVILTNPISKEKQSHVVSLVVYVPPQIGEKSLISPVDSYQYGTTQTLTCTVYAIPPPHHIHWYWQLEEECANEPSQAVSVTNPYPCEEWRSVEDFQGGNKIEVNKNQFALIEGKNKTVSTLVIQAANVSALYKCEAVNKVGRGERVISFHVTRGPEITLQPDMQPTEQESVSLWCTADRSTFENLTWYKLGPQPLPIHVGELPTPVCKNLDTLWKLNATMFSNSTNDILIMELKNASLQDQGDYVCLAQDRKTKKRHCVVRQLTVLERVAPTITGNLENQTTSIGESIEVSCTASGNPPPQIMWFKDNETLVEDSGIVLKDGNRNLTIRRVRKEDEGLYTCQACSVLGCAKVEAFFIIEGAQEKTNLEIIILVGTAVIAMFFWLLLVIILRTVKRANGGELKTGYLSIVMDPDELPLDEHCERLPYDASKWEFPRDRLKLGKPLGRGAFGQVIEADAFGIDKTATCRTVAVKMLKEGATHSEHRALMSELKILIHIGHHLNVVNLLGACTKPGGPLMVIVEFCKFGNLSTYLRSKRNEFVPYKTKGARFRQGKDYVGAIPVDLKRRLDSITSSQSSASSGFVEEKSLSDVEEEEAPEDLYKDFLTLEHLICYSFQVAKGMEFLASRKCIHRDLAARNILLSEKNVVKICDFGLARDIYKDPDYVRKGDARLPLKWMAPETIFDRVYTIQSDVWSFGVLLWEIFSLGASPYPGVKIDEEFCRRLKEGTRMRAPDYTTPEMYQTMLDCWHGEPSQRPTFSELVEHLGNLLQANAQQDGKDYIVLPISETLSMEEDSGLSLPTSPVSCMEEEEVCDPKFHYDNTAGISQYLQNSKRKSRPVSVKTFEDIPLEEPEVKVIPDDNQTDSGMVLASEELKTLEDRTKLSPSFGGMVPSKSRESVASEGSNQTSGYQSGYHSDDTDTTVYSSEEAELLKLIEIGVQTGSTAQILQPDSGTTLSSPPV
Sequence of Platelet-derived growth factor receptor beta (P09619 whole entry): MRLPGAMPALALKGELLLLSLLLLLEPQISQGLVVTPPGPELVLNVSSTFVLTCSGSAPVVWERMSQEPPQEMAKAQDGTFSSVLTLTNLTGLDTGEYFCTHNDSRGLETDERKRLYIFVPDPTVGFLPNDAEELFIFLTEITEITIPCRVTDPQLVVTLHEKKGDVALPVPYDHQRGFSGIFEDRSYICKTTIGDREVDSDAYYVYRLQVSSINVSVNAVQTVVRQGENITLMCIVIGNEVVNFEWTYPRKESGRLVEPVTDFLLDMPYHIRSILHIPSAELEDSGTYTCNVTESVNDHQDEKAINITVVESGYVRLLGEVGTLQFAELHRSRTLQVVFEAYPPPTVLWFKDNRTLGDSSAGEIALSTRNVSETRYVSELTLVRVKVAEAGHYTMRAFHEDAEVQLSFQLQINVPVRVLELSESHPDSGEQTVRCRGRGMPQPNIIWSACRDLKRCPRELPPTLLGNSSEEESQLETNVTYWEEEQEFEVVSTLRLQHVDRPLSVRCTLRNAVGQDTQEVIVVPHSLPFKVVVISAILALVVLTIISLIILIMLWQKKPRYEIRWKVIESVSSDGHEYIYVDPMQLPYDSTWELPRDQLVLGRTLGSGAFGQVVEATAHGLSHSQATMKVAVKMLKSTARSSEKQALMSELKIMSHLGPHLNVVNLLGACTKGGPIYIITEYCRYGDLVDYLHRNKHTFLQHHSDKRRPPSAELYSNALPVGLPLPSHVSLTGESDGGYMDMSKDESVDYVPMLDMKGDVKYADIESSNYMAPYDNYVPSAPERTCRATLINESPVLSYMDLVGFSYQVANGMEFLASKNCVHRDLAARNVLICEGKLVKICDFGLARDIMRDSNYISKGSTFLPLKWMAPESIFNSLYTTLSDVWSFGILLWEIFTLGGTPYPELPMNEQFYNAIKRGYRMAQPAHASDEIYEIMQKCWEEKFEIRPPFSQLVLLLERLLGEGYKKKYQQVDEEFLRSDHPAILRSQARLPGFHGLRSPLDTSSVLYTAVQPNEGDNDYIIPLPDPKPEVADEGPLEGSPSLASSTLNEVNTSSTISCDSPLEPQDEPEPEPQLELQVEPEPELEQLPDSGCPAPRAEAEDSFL

solubility at 0.25 h, 200 µM [7] [µM] | fraction unbound at 6 h, 2000 ng/mL [8] | IC50 (HCT-116) [nM] | IC50 [10] [nM] | IC50 [11] [nM] | SMILES | also measured
161 (≈ 80.3 µg/mL) | 0.026 | 32 | – | – | CC(Oc1cc(-n2cnc3ccc(OCCCN(C)C)cc32)sc1C(N)=O)c1ccccc1Cl (single isomer, unassigned) | –
170 (≈ 92 µg/mL) | 0.038 | 45 | – | – | C[C@@H](Oc1cc(-n2cnc3ccc(OC[C@H](O)CN4CCCC4)cc32)sc1C(N)=O)c1ccccc1Cl (single isomer, unassigned) | –
≥ 200 | 0.031 | 17 | – | – | CC(Oc1cc(-n2cnc3ccc(O[C@H]4CCCN(C)CC4)cc32)sc1C(N)=O)c1ccccc1Cl (single isomer, unassigned) | –
200 (≈ 105 µg/mL) | 0.02 | 13 | – | – | CC(Oc1cc(-n2cnc3ccc(O[C@@H]4CCCN(C)CC4)cc32)sc1C(N)=O)c1ccccc1Cl (single isomer, unassigned) | –
≥ 190 | 0.085 | 11 | 630 | – | CC(Oc1cc(-n2cnc3ccc(OC4CCN(C)CC4)cc32)sc1C(N)=O)c1ccccc1Cl (single isomer, unassigned) [GSK-579289A] | IC50 (MX1): 9 nM; IC50 (SK-OV-3): 11 nM; IC50 [1]: 420 nM; IC50 [2]: 310 nM; IC50 [4]: 440 nM; IC50 [5]: 1200 nM; IC50 [6]: 2000 nM; IC50 (COLO 205): 5 nM; IC50 (HT-29): 3 nM; IC50 (A549): 11 nM; IC50 [9]: 21 nM
15 (≈ 7.32 µg/mL) | – | 73 | 61 | 1 | CC(Oc1cc(-n2cnc3ccc(OC[C@@H](O)CO)cc32)sc1C(N)=O)c1ccccc1Cl (single isomer, unassigned) [GSK-978744A] | –
– | – | 994 | 44 | – | COc1cc2ncn(-c3cc(O[C@@H](C)c4ccccc4Cl)c(C(N)=O)s3)c2cc1OC [GSK-237700A] | –
2 (≈ 0.916 µg/mL) | – | 25 | 6 | – | COc1cc2ncn(-c3cc(O[C@H](C)c4ccccc4Cl)c(C(N)=O)s3)c2cc1OC [GSK-237701A] | –
1 (≈ 0.461 µg/mL) | 0.005 | 476 | 41 | 3 | COc1ccc2ncn(-c3cc(O[C@H](C)c4ccccc4C(F)(F)F)c(C(N)=O)s3)c2c1 [GSK-317315A] | –

Continued, compound first:

SMILES | solubility at 0.25 h, 200 µM [7] [µM] | fraction unbound at 6 h, 2000 ng/mL [8] | IC50 (HCT-116) [nM] | IC50 [10] [nM] | IC50 [11] [nM] | also measured
CC(Oc1cc(-n2cnc3ccc(OC4CCN(C)CC4)cc32)sc1C(N)=O)c1ccccc1C(F)(F)F (single isomer, unassigned) | 179 (≈ 97.5 µg/mL) | 0.052 | 12 | 270 | – | IC50 (MX1): 10 nM; IC50 (SK-OV-3): 32 nM; IC50 [1]: 110 nM; IC50 [2]: 340 nM; IC50 [3]: 390 nM; IC50 [4]: 530 nM; IC50 [5]: 800 nM; IC50 [6]: 840 nM; IC50 (COLO 205): 5 nM; IC50 (HT-29): 3 nM; IC50 (A549): 14 nM; IC50 [9]: 25 nM
CC(Oc1cc(-n2cnc3ccc(OC4CCNCC4)cc32)sc1C(N)=O)c1ccccc1C(F)(F)F (single isomer, unassigned) | 104 (≈ 55.2 µg/mL) | 0.034 | 15 | – | – | –
CC(Oc1cc(-n2cnc3ccc(OCC4CCN(C)CC4)cc32)sc1C(N)=O)c1ccccc1C(F)(F)F (single isomer, unassigned) [GSK-326090A] | 109 (≈ 60.9 µg/mL) | 0.023 | 30 | 550 | 7 | –
CC(Oc1cc(-n2cnc3ccc(OCC4CCN(C)CC4)cc32)sc1C(N)=O)c1ccccc1Cl (single isomer, unassigned) [GSK-571989A] | ≥ 172 | 0.021 | 34 | 1100 | 6 | –
COc1ccc2ncn(-c3cc(O[C@H](C)c4ccccc4Cl)c(C(N)=O)s3)c2c1 [GSK-317314A] | 3 (≈ 1.28 µg/mL) | 0.005 | 321 | 35 | 1 | –
COc1cc2ncn(-c3cc(OCc4ccccc4Cl)c(C(N)=O)s3)c2cc1OC [GW852849X] | – | – | 1140 | 9 | – | –
